Assay results published in PMC1851959, “Structure, substrate recognition and reactivity of Leishmania major mevalonate kinase” (BMC Structural Biology, 2007).

How the values were obtained:
[1] = target: T1, LmMK (recombinant, bacterially expressed) (Leishmania major, UniProt Q4Q6K7); assay: X-ray crystal structure of complex, […] A (also radioactive kinase assay); type: binding
T1 construct: gene LMJF_31_0560; pET15b (NdeI/XhoI), E. coli BL21(DE3), N-terminal His-tag removed by thrombin; about 329 residues, monomer, about 35 kDa; 3 C-terminal residues disordered
T1 sequence (Q4Q6K7 1-329): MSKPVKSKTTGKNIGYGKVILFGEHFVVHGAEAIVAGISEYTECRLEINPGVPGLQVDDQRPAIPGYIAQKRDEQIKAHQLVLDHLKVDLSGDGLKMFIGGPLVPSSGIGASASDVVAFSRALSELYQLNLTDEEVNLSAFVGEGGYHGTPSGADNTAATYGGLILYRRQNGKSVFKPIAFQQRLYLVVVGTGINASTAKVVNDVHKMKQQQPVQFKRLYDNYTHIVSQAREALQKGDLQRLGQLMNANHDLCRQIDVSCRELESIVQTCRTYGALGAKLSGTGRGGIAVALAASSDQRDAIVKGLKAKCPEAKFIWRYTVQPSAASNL

[2] = target: T1, LmMK (recombinant, bacterially expressed); assay: radioactive phosphorylation assay, chromatography, scintillation counting; type: biochemical
[3] = target: T2, TbMK (TbMK-HA) (Trypanosoma brucei, UniProt Q57Y11); type: biochemical; conditions: phosphate donor; with 833 uM [3H](R)-MVA, MgCl2 5 uM, pH 7.0, 30 C
T2 construct: gene Tb04.1D20.470
T2 sequence (Q57Y11 entry or part of it): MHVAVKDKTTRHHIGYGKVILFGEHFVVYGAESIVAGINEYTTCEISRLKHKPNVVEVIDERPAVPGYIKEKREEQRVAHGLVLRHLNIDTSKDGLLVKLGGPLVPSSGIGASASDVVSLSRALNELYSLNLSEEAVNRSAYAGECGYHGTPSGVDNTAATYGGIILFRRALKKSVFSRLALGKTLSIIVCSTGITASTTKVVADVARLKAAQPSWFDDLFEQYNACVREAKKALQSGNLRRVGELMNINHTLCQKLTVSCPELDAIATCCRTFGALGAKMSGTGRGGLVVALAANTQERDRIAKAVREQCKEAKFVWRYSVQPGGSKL

| Structure (SMILES) | X-ray crystal structure of complex, 1.9 A (also radioactive kinase assay) [1] | radioactive phosphorylation assay, chromatography, scintillation counting [2] | radioactive phosphorylation assay, chromatography, scintillation counting [3] |
| --- | --- | --- | --- |
| C[C@@](O)(CCO)CC(=O)O [(R)-MVA] | The electron density clearly indicated the presence of (R)-MVA in molecule A |  |  |
| Nc1ncnc2c1ncn2[C@@H]1O[C@H](COP(=O)(O)OP(=O)(O)OP(=O)(O)O)[C@@H](O)[C@H]1O [ATP] |  | Activity of LmMK was observed after incubation of the enzyme with radiolabeled [^3H] (R)-MVA and ATP | an ATP-dependent MK activity in Leishmania and Trypanosoma |
